# In patent publication US4065570A (priority 1975, dated 1977):
# Several values for one entry are separate records, joined by “and”; a condition that tells them apart may be missing. Equal entries are not always repeated.
# Key:
# Polio I [1] = test: cells; format: cell-based; conditions: Primates
# [2] = system: viruses of the Picorna group; test: antiviral activity (general statements); format: cell-based; conditions: result in words
# Procedure: The in vitro activity of representative compounds of the present invention are set forth below.
# (§1) In preparing the compounds for testing, they were handled aseptically throughout. The compounds were dissolved in a minimum amount of a suitable solvent, and the final dilutions were made up to the required volume in a complete culture medium in a concentration not exceeding the predetermined maximum non-cytotoxic levels.
# (§2) The cell cultures used in all primary in vitro antipicorna virus screening tests were an established cell line of the African green monkey kidney (VERO), a primary cell culture of the Cercopythecus monkey kidney, or human embryonic lung diploid cells WI-38.
# (§3) The cells were grown in test tubes in a suitable medium. Immediately before use the initial medium was replaced with the one which contained the test compound in an appropriate concentration. After the virus was added, the infected culture was incubated at 37° C for a number of days and the cytopathic effect of the virus observed and recorded. The results were read every day in all of the tubes and the destruction of cells assessed in precentage of the cell sheet destroyed: 0-25-50-75-100%. As controls, cells with only virus (for cytopathic effect) or with only the compound (for cytotoxic effect) were used as well as the normal, uninfected cells (no cytotoxic -- no cytopathic effects).
# Net difference in cytopathic effect between treated and control tubes expressed in percentage give the extent of the inhibitory activity of the substance.
# Polio I [3] = test: organism not typed; format: cell-based; conditions: Vero
# [4] = cytotoxicity against Vero cells; format: cell-based, African green monkey; conditions: african green monkey
# Procedure: as §1, §2
# (§4) The cytotoxic stuides were performed on each of the compounds to determine the level of response of the cells used to the potentially toxic action of the substances.
# as §3
# Vero cells = test: cytotoxicity against Vero cells; format: cell-based, African green monkey; conditions: Vero cells; for Cytotoxicity CTD50: 50% inhibition of the cell growth; for Cytotoxicity CTD0: maximal non-toxic concentration
# Procedure: as §1, §2, §4, §3
compound,measurement,setting,value
"COc1ccc(C=C2NC(=O)NC2=O)cc1OC [5-(3',4'-DIMETHOXYBENZAL) HYDANTOIN, 5-(3',4'-Dimethoxybenzal) hydantoin]",inhibition at 50 µg/mL,Polio I [1],34%
same,inhibition at 100 µg/mL,Polio I [1],45%
"COc1ccc(C=C2C(=O)N(C(C)=O)C(=O)N2C(C)=O)cc1OC [Example 32, N,N-diacetylated 5-(3',4'-dimethoxybenzal) hydantoin]",anti-viral activity in tissue culture tests,[2],much greater anti-viral activity than the former
same,inhibition at 1 µg/mL,"Polio I [3]; 316 TCID50, 1 μg/ml",100%
same,inhibition at 5 µg/mL,"Polio I [3]; 316 TCID50, 5 μg/ml",100%
same,inhibition at 10 µg/mL,"Polio I [3]; 316 TCID50, 10 μg/ml",100%
same,inhibition at 50 µg/mL,"Polio I [3]; 316 TCID50, 50 μg/ml",100%
same,CC50,"[4]; vero cells, read-out: Cytotoxicity CTD50",33 µg/mL
same,MNTC,"[4]; Vero cells, maximal non-toxic concentration, read-out: Cytotoxicity CTD0",10 µg/mL
"Acetylated 5-(2',4',5'-trimethoxybenzal) hydantoin [Example 22]",% Inhibition,"Polio I [3]; 10 TCID50, 0.01 μg/ml",4%
same,% Inhibition,"Polio I [3]; 10 TCID50, 0.03 μg/ml",8%
same,% Inhibition,"Polio I [3]; 10 TCID50, 0.07 μg/ml",27%
same,% Inhibition,"Polio I [3]; 10 TCID50, 0.1 μg/ml",54%
same,% Inhibition,"Polio I [3]; 10 TCID50, 0.3 μg/ml",98%
same,% Inhibition,"Polio I [3]; 10 TCID50, 0.7 μg/ml",98%
same,% Inhibition,"Polio I [3]; 10 TCID50, 1 μg/ml",100%
same,% Inhibition,"Polio I [3]; 100 TCID50, 0.01 μg/ml",0%
same,% Inhibition,"Polio I [3]; 100 TCID50, 0.03 μg/ml",0%
same,% Inhibition,"Polio I [3]; 100 TCID50, 0.07 μg/ml",25%
same,% Inhibition,"Polio I [3]; 100 TCID50, 0.1 μg/ml",50%
same,% Inhibition,"Polio I [3]; 100 TCID50, 0.3 μg/ml",90%
same,% Inhibition,"Polio I [3]; 100 TCID50, 0.7 μg/ml",93%
same,% Inhibition,"Polio I [3]; 100 TCID50, 1 μg/ml",100%
same,Cytotoxicity CTD50,Vero cells,> 100 µg/mL
same,Cytotoxicity CTD0,Vero cells,1 µg/mL
"Acetylated 5-(3',4',5'-trimethoxybenzal) hydantoin [Example 23]",% Inhibition,"Polio I [3]; 316 TCID50, 0.1 μg/ml",0%
same,% Inhibition,"Polio I [3]; 316 TCID50, 0.3 μg/ml",14%
same,% Inhibition,"Polio I [3]; 316 TCID50, 0.7 μg/ml",36%
same,% Inhibition,"Polio I [3]; 316 TCID50, 1 μg/ml",46%
same,% Inhibition,"Polio I [3]; 316 TCID50, 3.3 μg/ml",56%
same,% Inhibition,"Polio I [3]; 316 TCID50, 6.7 μg/ml",72%
same,% Inhibition,"Polio I [3]; 316 TCID50, 10 μg/ml",96%
same,Cytotoxicity CTD50,Vero cells,50 µg/mL
same,Cytotoxicity CTD0,Vero cells,10 µg/mL
"Acetylated 5-(3',4'-dimethoxybenzal) hydantoin",degree of antiviral activity,[2]; listed as Example 30,highly effective against Picorna group of viruses
same,degree of antiviral activity,"[2]; listed as acetylated 5-(3',4'-dimethoxybenzal) hydantoin (anhydrous sodium acetate and ace)",exceptionally good antiviral activity
"Acetylated 5-(3',5'-dimethoxybenzal) hydantoin [Example 21]",% Inhibition,"Polio I [3]; 10 TCID50, 0.5 μg/ml",15%
same,% Inhibition,"Polio I [3]; 10 TCID50, 1 μg/ml",50%
same,% Inhibition,"Polio I [3]; 10 TCID50, 5 μg/ml",100%
same,% Inhibition,"Polio I [3]; 10 TCID50, 10 μg/ml",100%
same,% Inhibition,"Polio I [3]; 100 TCID50, 0.5 μg/ml",0%
same,% Inhibition,"Polio I [3]; 100 TCID50, 1 μg/ml",32%
same,% Inhibition,"Polio I [3]; 100 TCID50, 5 μg/ml",100%
same,% Inhibition,"Polio I [3]; 100 TCID50, 10 μg/ml",100%
same,Cytotoxicity CTD50,Vero cells,> 100 µg/mL and 100 µg/mL
same,Cytotoxicity CTD0,Vero cells,100 µg/mL
Acetylated 5-(3'-methoxy-4'-acetoxybenzal) hydantoin [Example 15],Cytotoxicity CTD50,Vero cells,> 100 µg/mL
same,Cytotoxicity CTD0,Vero cells,> 10 µg/mL
Acetylated 5-benzalhydantoin [Example 16],Cytotoxicity CTD50,Vero cells,83 µg/mL
same,Cytotoxicity CTD0,Vero cells,10 µg/mL
"N-monoacetylated 5-(3',4'-dimethoxybenzal) hydantoin [Example 31]",anti-viral activity in tissue culture tests,[2],more active than the unacetylated compound
same,% Inhibition,"Polio I [3]; 316 TCID50, 1 μg/ml",0%
same,% Inhibition,"Polio I [3]; 316 TCID50, 5 μg/ml",0%
same,% Inhibition,"Polio I [3]; 316 TCID50, 10 μg/ml",7%
same,% Inhibition,"Polio I [3]; 316 TCID50, 50 μg/ml",84%
same,Cytotoxicity CTD50,Vero cells,100 µg/mL
same,Cytotoxicity CTD0,Vero cells,10 µg/mL
